Laboratory results taken from patent US10758614B2, “Combination therapies targeting tumor-associated stroma or tumor cells and topoisomerase” (BIOMED VALLEY DISCOVERIES, INC., priority 2014, dated 2020).

B1: M830: TEM8 monoclonal antibody (hIgG1), VH SEQ ID NO:5, VL SEQ ID NO:6 (antibody, V domains shown)
VH: EVQLVESGGGVVQPGRSVRLSCAASGFTFSTYTMHWVRQAPGKGLEWVAIISNDGSNKYYADPVRGRFTISRDNSKNTLYLQMNSLRAEDTAVYYCVRGSSWYRGNWFDPWGQGTLVTVSS
VL: DIQMTQSPSSLSASVGDRVTIACRASQTISRYLNWYQQKPGKAPKLLIYAASSLQSGVSSRFSGSGSGTEFTLTISSLQPEDFATYFCQQTYSPPITFGQGTRLEIKR
modifications: TEM830 mAb VH; TEM830 mAb VL

Tests used:
MDA-MB231 tumors = details: 79-day study, endpoint 1500 mm^3; logrank
Description: Unless otherwise noted, female immunodeficient athymic nude mice (Crl:NU(Ncr)-Foxn/nu, Charles River) were used at nine weeks old with a body weight (BW) range of about 15 to about 30 grams on Day 1 of the study.
On the day of tumor implant, each test mouse was injected with cultured tumor cells, and tumor growth was monitored as the average size approached the target range. Tumors were measured in two dimensions using calipers, and volume was calculated using the formula: Tumor Volume (mm^3)=(w^2×l)/2 where w=width and l=length, in mm, of the tumor. Tumor weight was estimated with the assumption that 1 mg is equivalent to 1 mm^3 of tumor volume. For all therapeutic studies, mice were sorted into groups containing the same average size tumors prior to initiation of therapy. Controls
One group in each cohort received 1% vehicle IP three times per week to end, and served as the control group for calculation of % tumor growth delay (TGD).
Tumors were measured using calipers twice per week, and each animal was euthanized when its tumor reached the pre-determined tumor volume endpoint described for each experiment (usually 2000 mm^3) or on the final day, whichever came first. […] The time to endpoint (TTE) for analysis was calculated for each mouse by the following equation: TTE=[ log10(endpoint volume)−b]/m where TTE is expressed in days, endpoint volume is expressed in mm^3, b is the intercept, and m is the slope of the line obtained by linear regression of a log-transformed tumor growth data set. […] The calculated TTE was usually less than the TP date, the day on which the animal was euthanized for determination of tumor size. […]
Treatment outcome was evaluated from TGD, defined as the increase in the median TTE in a treatment group compared to the control group: TGD=T−C, expressed in days, or as a percentage of the median TTE of the control group: % TGD=[(T−C)/C]×100 where: […]
Animals were weighed daily on Days 1-5, then twice per week until completion of the study. […] Group mean BW loss also was monitored as per protocol. […]

H460 cells = assay: M830 in the H460 non-small cell lung carcinoma xenograft model; type: in vivo, athymic nude mice; details: M830 with combination partner Paclitaxel
Description: Animals were monitored for regression responses.
Cultured H460 cells were harvested during exponential growth and resuspended in phosphate buffered saline at a concentration of 1×10^8 cells/mL. 1.0×10^7 tumor cells were injected subcutaneously into the flank of athymic nude mice.

| Molecule | survival compared to controls (MDA-MB231 tumors) | regression (at Day 21) (H460 cells) |
| --- | --- | --- |
| COc1cccc2c1C(=O)c1c(O)c3c(c(O)c1C2=O)C[C@@](O)(C(=O)CO)C[C@@H]3O[C@H]1C[C@H](N)[C@H](O)[C@H](C)O1 [Doxorubicin, doxorubicin] | statistically significant survival extensions |  |
| CC(=O)O[C@H]1C(=O)[C@@]2(C)[C@H]([C@H](OC(=O)c3ccccc3)[C@]3(O)C[C@H](OC(=O)[C@H](O)[C@@H](NC(=O)c4ccccc4)c4ccccc4)C(C)=C1C3(C)C)[C@]1(OC(C)=O)CO[C@@H]1C[C@@H]2O [paclitaxel] | statistically significant survival extensions |  |
| B1 | did not produce statistically significant survival benefit | (−61% regression) |
